We go through 7 compounds from US11090319B2, “Therapeutic uses of pharmaceutical compositions comprising cyclic boronic acid ester derivatives” (Melinta Subsidiary Corp., priority 2010, dated 2021).

Where two headings read alike, the source gives them in different places. Bounds are passed on as bounds.

In test [1] the test system is SM1000 Serratia marcescens SME-2. Nature of the test: Checkerboard assay, biapenem potentiation. Particulars: Biapenem MIC 8-fold; SM1000 SME-2 class A.
Test [2] deals with ECL1004 Enterobacter cloacae NMC-A. Nature of the test: Checkerboard assay, biapenem potentiation. Particulars: Biapenem MIC 8-fold; ECL1004 NMC-A class A.
Test [3] relates to EC1007 Escherichia coli KPC-3. Nature of the test: Checkerboard assay, biapenem potentiation. The settings on record: Biapenem MIC 8-fold; EC1007 KPC-3 class A.
The target in test [4] is various β-lactamases (bacterial lysates) (Escherichia coli, UniProt A0A5R8T042). Briefly: biochemical. Type of test: biochemical. Particulars: read-out: AZT IC50 KP1009 CTX-M-15.
Chain of various β-lactamases (bacterial lysates) (Escherichia coli, UniProt A0A5R8T042) (A0A5R8T042 29-291): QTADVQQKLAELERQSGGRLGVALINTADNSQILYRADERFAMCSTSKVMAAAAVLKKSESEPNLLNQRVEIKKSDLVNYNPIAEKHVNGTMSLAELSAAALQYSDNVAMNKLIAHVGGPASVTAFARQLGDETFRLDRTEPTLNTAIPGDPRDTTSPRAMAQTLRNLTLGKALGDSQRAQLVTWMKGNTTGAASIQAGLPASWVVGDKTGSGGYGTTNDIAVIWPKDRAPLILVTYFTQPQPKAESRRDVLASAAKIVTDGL
The target of test [5] is various β-lactamases (bacterial lysates) (Pseudomonas aeruginosa, UniProt P14489). Nature of the test: biochemical. Type of test: biochemical. The settings on record: AZT IC50 KP1007 OXA-10.
Test [6] deals with various β-lactamases (bacterial lysates) (Escherichia coli, UniProt A0A649V088). Briefly: biochemical. Type of test: biochemical. The settings on record: read-out: AZT IC50 KP1005 CTX-M-14.
Test [7] addresses various β-lactamases (bacterial lysates) (Salmonella typhimurium, UniProt P0A1V8). Briefly: biochemical. The format is biochemical. Particulars: AZT IC50 KPX1001 OXA-2.
The target in test [8] is various β-lactamases (bacterial lysates) (Klebsiella pneumoniae, UniProt Q9F663, H272Y). Nature of the test: biochemical. Type of test: biochemical.
Test [9] deals with various β-lactamases (bacterial lysates) (Klebsiella pneumoniae, UniProt Q9F663). Nature of the test: biochemical. Type of test: biochemical.
The target in test [10] is various β-lactamases (bacterial lysates) (Escherichia coli, UniProt Q53TY8). Nature of the test: Inhibition of nitrocefin cleavage by bacterial lysates, Table 11. Type of test: biochemical. The settings on record: lysate EC1010 pAmpC (CMY-6), read-out: NCF IC50 EC1010 pAmpC (CMY-6).
Test [11] deals with CTX-M-15, lysate of KP1009 (Escherichia coli, UniProt Q9EXV5). Nature of the test: Inhibition of ceftazidime hydrolysis by bacterial lysate.
Chain of CTX-M-15, lysate of KP1009 (Q9EXV5 entry or part of it): as the sequence (A0A5R8T042 29-291) above
For the next test, the target named is SME-2, lysate of SM1000 (Serratia marcescens, UniProt P52682). Nature of the test: Inhibition of biapenem hydrolysis by bacterial lysate. The settings on record: read-out: IC50 of inhibition of biapenem hydrolysis; SM1000 SME-2.
The next test concerns the target SHV-2, lysate of ec306 (Escherichia coli, UniProt P0A9Z7). Nature of the test: Inhibition of ceftazidime hydrolysis by bacterial lysate.
Another test has as its target OXA-10, lysate of KP1007 (Pseudomonas aeruginosa, UniProt P14489). The test is described as above.
In test [12] the test system is strains expressing class A ESBLs. The format is cell-based. How it is done:
Selected β-lactamase inhibitors were also tested for their ability to potentiate the monobactam tigemonam.

The target in a further test is GES-1, lysate of pa 1063 (Klebsiella pneumoniae, UniProt Q9KJY7). Briefly: Inhibition of ceftazidime hydrolysis by bacterial lysate.
The target of another test is SHV-5, lysate of ec308 (Escherichia coli, UniProt P0AD63, E235K/G234S). The description is as above.
[13] abbreviates: lysate KP1004 KPC-2, aztreonam cleavage, read-out: AZT IC50 KP1004 KPC-2 (converted).
[14] abbreviates: lysate KP1008 KPC-2, aztreonam cleavage, read-out: AZT IC50 KP1008 KPC-2.

On to `O=C(O)CC1CC[C@H](NC(=O)Cc2ccccc2)B(O)O1` (stereo partly drawn) [Compound 2, 2-((3R)-2-hydroxy-3-(2-phenylacetamido)-1,2-oxaborinan-6-yl)acetic acid], for which the MPC8 entry in test [1] is “Y (MPC8 of 0.16 μg/mL to 1 μg/mL)”; in test [2], “Y (MPC8 of 0.16 μg/mL to 1 μg/mL)”; in test [3], “X (MPC8 of less than 0.16 μg/mL)”.

Regarding `Nc1nc(CC(=O)N[C@H]2CC[C@@H](CC(=O)O)OB2O)cs1` [Compound 39, 2-((3R,6S)-3-(2-(2-aminothiazol-4-yl)acetamido)-2-hydroxy-1,2-oxaborinan-6-yl)acetic acid], the IC50 in test [4] was 1600 to 6390 nM; in test [5] it was above 6390 nM; in test [6], 1600 to 6390 nM; in test [7] it was 1600 to 6390 nM; in test [8], below 1600 nM; in [9] (setting [13]), below 1600 nM. Besides, the half-maximal inhibitory concentration (IC50) is 1600 to 6390 nM in [9] (setting [14]) and above 6390 nM in test [10].

Regarding `CO/N=C(\C(=O)N[C@H]1CC[C@@H](CC(=O)O)OB1O)c1csc(N)n1` [Compound 40, 2-((3R,6S)-3-((Z)-2-(2-aminothiazol-4-yl)-2-(methoxyimino)acetamido)-2-hydroxy-1,2-oxaborinan-6-yl)acetic acid], the IC50 in [4] was below 1400 nM; in [5], 1400 to 5620 nM; in test [6] it was below 1400 nM; in [7] it was below 1400 nM; in test [8], 1400 to 5620 nM; in test [9] (setting [13]) it was 1400 to 5620 nM. Besides, the IC50 in test [9] (setting [14]) was above 5620 nM; in [10], 1400 to 5620 nM.

Consider `NC1(CC(=O)N[C@H]2CC[C@@H](CC(=O)O)OB2O)CCCCC1` [Compound 51, 2-((3R,6S)-3-(2-(1-aminocyclohexyl)acetamido)-2-hydroxy-1,2-oxaborinan-6-yl)acetic acid], for which the IC50 in [4] is above 6410 nM; in test [5], above 6410 nM; in test [6] it was above 6410 nM; in test [7], 1600 to 6410 nM; in [8], below 1600 nM; in test [9] (setting [13]), below 1600 nM. For the same compound, the IC50 in [9] (setting [14]) was below 1600 nM; in test [10], 1600 to 6410 nM.

`O=C(O)C[C@@H]1CC[C@H](NC(=O)Cn2ccnc2-c2ccccc2)B(O)O1` [Compound 54, 2-((3R,6S)-2-hydroxy-3-(2-(2-phenyl-1H-imidazol-1-yl)acetamido)-1,2-oxaborinan-6-yl)acetic acid]: the IC50 in [4] was above 5600 nM; in test [5], above 5600 nM; in test [6], below 1400 nM; in test [7], 1400 to 5600 nM; in test [8] it was below 1400 nM; in [9] (setting [13]), below 1400 nM. For the same compound, the IC50 in test [9] (setting [14]) is below 1400 nM; in test [10], 1400 to 5600 nM.

As for `Nc1nc(/C(=N/OCc2cc(=O)c(O)cn2O)C(=O)N[C@H]2CC[C@@H](CC(=O)O)OB2O)cs1` [Compound 62, 2-((3R)-3-((Z)-2-(2-aminothiazol-4-yl)-2-((1,5-dihydroxy-4-oxo-1,4-dihydropyridin-2-yl)methoxyimino)acetamido)-2-hydroxy-1,2-oxaborinan-6-yl)acetic acid], the IC50 in test [4] is 1040 to 4160 nM; in [5], above 4160 nM; in test [6] it was 1040 to 4160 nM; in test [7], above 4160 nM; in test [8], below 1040 nM; in test [9] (setting [13]), 1040 to 4160 nM. The IC50 in [9] (setting [14]) was below 1040 nM; in test [10], above 4160 nM.

For the compound `C[C@]1(Cn2ccnn2)[C@H](C(=O)O)N2C(=O)C[C@H]2S1(=O)=O` [Tazobactam, reference compound], the IC50 was below 333 nM in test [11]; 333 to 3330 nM at SME-2, lysate of SM1000; 14800 nM in [5]; 2460 nM in test [8]; 7390 nM in test [9] (AZT IC50 KP1008 KPC-2); 2460 nM in test [9] (lysate KP1004 KPC-2, aztreonam cleavage, numeric values, read-out: AZT IC50 KP1004 KPC-2 (converted)). In addition, the IC50 is 333 to 3330 nM at SHV-2, lysate of ec306; 333 to 3330 nM against OXA-10, lysate of KP1007; 333 to 3330 nM against GES-1, lysate of pa 1063; below 333 nM at SHV-5, lysate of ec308. For the same compound, the “MPC4 CTX-M-14 KP1005” value in test [12] came to 10 µg/mL. For the same compound, the “MPC4 CTX-M-15 KP1009” value in [12] turned out to be 10 µg/mL. In addition, the “MPC4 SHV-5 ec308” value in test [12] turned out to be 5 µg/mL. For the same compound, in test [12], the “MPC4 SHV-12 KP1010” value is 1.25 µg/mL. For the same compound, the “MPC4 SHV-18 KP1012” value in test [12] is 1.25 µg/mL. Besides, in test [12], the “MPC4 TEM-10 EC1009” value is 2.5 µg/mL. For the same compound, the “MPC4 TEM-10 ec302” value in test [12] came out at 5 µg/mL. Moreover, the “MPC4 TEM-26 ec304” value in test [12] turned out to be 1.25 µg/mL.
